Measurements reported in patent US9617216B2, “Antifungal oxodihydropyridinecarbohydrazide derivative” (Daewoong Pharmaceutical Co., Ltd., priority 2013, dated 2017).
≈ marks a conversion by molar mass, not a printed value.

Tests used:
Assay type in all cases: cell-based
[1] = test system: Candida albicans; assay: In vitro antifungal activity test (MIC), Candida albicans; settings: concentration at which growth is inhibited by 80% vs negative control, 35° C., 24 hours, RPMI 1640, alama blue; for MIC80: Candida albicans
Method: (§1) The antifungal activities of the compounds of the present invention were evaluated using Candida albicans as yeast fungus, and Aspergillus fumigatus as a filamentous fungus. The above fungi used were all purchased from American Type Culture Collection (ATCC). The strains used in the experiment were inoculated into a Sabouraud dextrose agar medium, and then cultured at 35° C. for a sufficient period of time, e.g., 24 hours for Candida albicans, and about 7 days for Aspergillus fumigatus. As for Candida albicans, about 5 to 7 single colonies were taken from the cultured medium, sufficiently suspended in 1 ml of 0.85% sterile saline solution, and adjusted to have an optical density of 0.095 to 0.107 at 530 nm. A preparation of a strain diluent was diluted in Roswell park memorial institute (RPMI) 1640 medium at a 1:10 ratio, and the resultant was diluted again at a 1:100 ratio to obtain an inoculation preparation for Candida albicans with a concentration of 1.0×10^3 to 5.0×10^3 CFU/mL. As for Aspergillus fumigatus, the cultured Sabouraud dextrose agar was added with 1 mL of 0.2% Tween 20 diluted with 0.85% sterile saline solution, and then the plate was shaken to detach conidium from the plate. The solution collected from the plate surface was transferred into a sterile tube, and placed at room temperature for 5 minutes to deposit heavy substances. The resulting supernatant was transferred into the sterile tube, sufficiently suspended for about 15 seconds, and prepared a strain diluent with a concentration of 0.4×10^6 to 5.0×10^6 CFU/mL using a hemocytometer. The thus prepared strain diluent was diluted in RPMI 1640 medium at a 1:100 ratio to obtain an inoculation preparation for Aspergillus fumigatus. Candida albicans was cultured at 35° C. for 24 hours and Aspergillus fumigatus was cultured at 35° C. for 48 hours, and the concentrations, at which growth is inhibited by 80% or 50% compared to a negative control group, were determined using alama blue color developing reagent. All experiments were repeated twice for each concentration, and the results of antifungal activities (MIC80 MIC50 μg/mL) are shown in Tables 1 to 2.

[2] = test system: Candida albicans; assay: In vitro fungicidal activity test (MFC, minimum fungicidal concentration); settings: minimum concentration with no fungal growth, Sabouraud dextrose agar plate, 35° C., 48 hours, naked eye; for MFC: Candida albicans
Method: As samples of fungicidal agents, 10 mM stock solutions were diluted 10-fold by adding with RPMI 1640 medium, followed by a 5-fold serial dilution, and used as the highest concentration for evaluation of antifungal activity (MIC). The samples with the highest concentration of the fungicidal agents were treated with a 2-fold serial dilution into 11 different concentrations, and the final concentrations were determined by mixing with the strains at a 1:1 ratio. In particular, the concentration of dimethylsulfoxide used as an excipient was made to a final 1% (VN). The evaluations of the fungicidal activity of Candida albicans were performed using a test plate already completed of antifungal activity, from the highest concentration of a given sample to the concentration right next to the concentration determined to be MIC. Test solutions at each concentration were pipetted about 5 times, all were collected (about a total of 225 μL), and added into a 12-well Sabouraud dextrose agar plate.

[3] = test system: Aspergillus fumigatus; assay: In vitro antifungal activity test (MIC), Aspergillus fumigatus; settings: concentration at which growth is inhibited by 50% vs negative control, 35° C., 48 hours, RPMI 1640, alama blue; for MIC50: Aspergillus fumigatus
Method: as §1

Row | Compound | MIC80 [1] [µg/mL] | MFC [2] [µg/mL] | MIC50 [3] [µg/mL] | Candida albicans MIC80 [1] [µg/mL] | Candida albicans MFC [2] [µg/mL] | Aspergillus fumigatus MIC50 [3] [µg/mL]
1 | Cn1cc(C(=O)NNc2cccc(F)c2)ccc1=O [Example 2, N′-(3-fluorophenyl)-1-methyl-6-oxo-1,6-dihydropyridine-3-carbohydrazide] | 0.02 (≈ 0.0766 µM) | 0.1 (≈ 0.383 µM) |  |  |  | 
2 | Cn1cc(C(=O)NNc2cc(F)cc(F)c2)ccc1=O [Example 13, N′-(3,5-difluorophenyl)-1-methyl-6-oxo-1,6-dihydropyridine-3-carbohydrazide] | 0.03 (≈ 0.107 µM) | 0.1 (≈ 0.358 µM) | 0.44 (≈ 1.58 µM) |  |  | 
3 | COc1ncc(NNC(=O)c2ccc(=O)n(C)c2)cc1F [Example 21, N′-(5-fluoro-6-methoxypyridine-3-yl)-1-methyl-6-oxo-1,6-dihydropyridine-3-carbohydrazide] | 0.03 (≈ 0.103 µM) | 0.1 (≈ 0.342 µM) | 0.5 (≈ 1.71 µM) |  |  | 
4 | Cn1cc(C(=O)NNc2cccc(Cl)c2)cc(Cl)c1=O [Example 26, 5-chloro-N′-(3-chlorophenyl)-1-methyl-6-oxo-1,6-dihydropyridine-3-carbohydrazide] | 0.06 (≈ 0.192 µM) |  | 1 (≈ 3.2 µM) |  |  | 
5 | O=C(NNc1cccc(F)c1)c1c(Cl)cc(=O)n2c1CCC2 [Example 33, 7-chloro-N′-(3-fluorophenyl)-5-oxo-1,2,3,5-tetrahydroindolizine-8-carbohydrazide] | 0.13 (≈ 0.404 µM) |  | 0.5 (≈ 1.55 µM) |  |  | 
6 | O=C(NNc1ccc(F)cc1)c1c(Cl)cc(=O)n2c1CCC2 [Example 34, 7-chloro-N′-(4-fluorophenyl)-5-oxo-1,2,3,5-tetrahydroindolizine-8-carbohydrazide] | 0.25 (≈ 0.777 µM) |  | 1 (≈ 3.11 µM) |  |  | 
7 | COc1ncc(NNC(=O)c2cc(-c3ccc(F)cc3)c(=O)n(C)c2)cc1F [Example 37, N′-(5-fluoro-6-methoxypyridine-3-yl)-5-(4-fluorophenyl)-1-methyl-6-oxo-1,6-dihydropyridine-3-carbohydrazide] | 0.04 (≈ 0.104 µM) | 0.1 (≈ 0.259 µM) | 0.3 (≈ 0.776 µM) |  |  | 
8 | COc1ncc(NNC(=O)c2cc(-c3ccc(Cl)cc3)c(=O)n(C)c2)cc1F [Example 38, 5-(4-chlorophenyl)-N′-(5-fluoro-6-methoxypyridine-3-yl)-1-methyl-6-oxo-1,6-dihydropyridine-3-carbohydrazide] | 0.02 (≈ 0.0497 µM) | 0.1 (≈ 0.248 µM) | 0.3 (≈ 0.745 µM) |  |  | 
9 | COc1ncc(NNC(=O)c2cc(-c3ccc(C(F)(F)F)cc3)c(=O)n(C)c2)cc1F [Example 39, N′-(5-fluoro-6-methoxypyridine-3-yl)-1-methyl-6-oxo-5-(4-(trifluoromethyl)phenyl)-1,6-dihydropyridine-3-carbohydrazide] | 0.04 (≈ 0.0917 µM) | 0.2 (≈ 0.458 µM) | 0.7 (≈ 1.6 µM) |  |  | 
10 | COc1ncc(NNC(=O)c2cc(-c3ccc(C#N)cc3)c(=O)n(C)c2)cc1F [Example 40, 5-(4-cyanophenyl)-N′-(5-fluoro-6-methoxypyridine-3-yl)-1-methyl-6-oxo-1,6-dihydropyridine-3-carbohydrazide] | 0.04 (≈ 0.102 µM) | 0.2 (≈ 0.508 µM) |  |  |  | 
11 | COc1ncc(NNC(=O)c2ccc(=O)n(-c3cccc(Cl)c3)c2)cc1F [Example 48, 1-(3-chlorophenyl)-N′-(5-fluoro-6-methoxypyridine-3-yl)-6-oxo-1,6-dihydropyridine-3-carbohydrazide] | 0.04 (≈ 0.103 µM) |  | 0.6 (≈ 1.54 µM) |  |  | 
12 | O=C(NNc1ccc(F)cc1F)c1ccc(=O)n(Cc2cscn2)c1 [Example 49, N′-(2,4-difluorophenyl)-6-oxo-1-(thiazol-4-ylmethyl)-1,6-dihydropyridine-3-carbohydrazide] | 0.28 (≈ 0.773 µM) |  | 0.3 (≈ 0.828 µM) |  |  | 
13 | O=C(NNc1cc(F)cc(F)c1)c1ccc(=O)n(Cc2ccc(C(F)(F)F)nc2)c1 [Example 53, N′-(3,5-difluorophenyl)-6-oxo-1-((6-(trifluoromethyl)pyridine-3-yl)methyl)-1,6-dihydropyridine-3-carbohydrazide] | 0.04 (≈ 0.0943 µM) |  | 0.7 (≈ 1.65 µM) |  |  | 
14 | O=C(NNc1ccc(F)cc1F)c1ccc(=O)n(Cc2ccc(C(F)(F)F)nc2)c1 [Example 54, N′-(2,4-difluorophenyl)-6-oxo-1-((6-(trifluoromethyl)pyridine-3-yl)methyl)-1,6-dihydropyridine-3-carbohydrazide] | 0.08 (≈ 0.189 µM) |  | 0.7 (≈ 1.65 µM) |  |  | 
15 | CC[C@H](C)C[C@H](C)CCCCCCCCC(=O)N[C@H]1C[C@@H](O)[C@@H](NCCN)NC(=O)[C@@H]2[C@@H](O)CCN2C(=O)[C@H]([C@H](O)CCN)NC(=O)[C@H]([C@H](O)[C@@H](O)c2ccc(O)cc2)NC(=O)[C@@H]2C[C@@H](O)CN2C(=O)[C@H]([C@@H](C)O)NC1=O [caspofungin, reference compound] |  |  |  | 0.25 | 4 | 0.3
16 | OC(Cn1cncn1)(Cn1cncn1)c1ccc(F)cc1F [fluconazole, reference compound] | 0.25 (≈ 0.816 µM) | > 32 | > 32 |  |  | 
